These results are taken from ChEMBL document CHEMBL4184318, “Identification of Fast-Acting 2,6-Disubstituted Imidazopyridines That Are Efficacious in the in Vivo Humanized Plasmodium falciparum NODscidIL2Rγ null Mouse Model of Malaria” (J Med Chem, 2018).

A short description of data set [1]: Drug metabolism in iv or po dosed BALB/c mouse plasma assessed as dioxidation of cyclopentane ring by LC-MS/MS method. The format is ADME, organism-based. Conditions: in vivo.
Data set [2] in a line: Kinetic solubility of the compound in phosphate buffered saline at pH 6.5 after 20 hrs by shake flask method. Format: physicochemical. The settings on record: read-out: Kinetic_solubility.
Data set [3] is described as follows: Drug metabolism in iv or po dosed BALB/c mouse plasma assessed as oxidation of cyclopentane ring by LC-MS/MS method. The format is ADME, organism-based. The settings on record: in vivo.
Data set [4] can be described thus: Kinetic solubility of the compound in FaSSIF at pH 6.5 after 20 hrs by shake flask method. Format: physicochemical. The settings on record: read-out: Kinetic_solubility.
Data set [5] is described as follows: Kinetic solubility of the compound in HCl at pH 2 after 20 hrs by shake flask method. Format: physicochemical. The settings on record: read-out: Kinetic_solubility.
Data set [6] in a line: Drug metabolism in iv or po dosed BALB/c mouse plasma assessed as oxidation and dehydrogenation of cyclopentane ring by LC-MS/MS method. The format is ADME, organism-based. Conditions: in vivo.
In data set [7] the test system is Mus musculus. Put plainly: Dose normalized Cmax in NOD-scid IL-2Rgamma-null mouse model engrafted with Plasmodium falciparum 3D7 infected human erythrocytes at 25 mg/kg administered via oral gavage measured over 23 hrs post first dose by LC-MS/MS method. The format is ADME, organism-based. The settings on record: in vivo.
Data set [8] is described as follows: AUC (0 to 23 hrs) in NOD-scid IL-2Rgamma-null mouse model engrafted with Plasmodium falciparum 3D7 infected human erythrocytes at 10 mg/kg administered via oral gavage by LC-MS/MS method. The format is ADME, organism-based. Also on record: dose 10 mg/kg, time < 23 hr, route oral. The settings on record: in vivo.
Data set [9] in a line: Cmax in NOD-scid IL-2Rgamma-null mouse model engrafted with Plasmodium falciparum 3D7 infected human erythrocytes at 50 mg/kg administered via oral gavage measured over 23 hrs post first dose by LC-MS/MS method. Format: ADME, organism-based. Also noted: dose 50 mg/kg, route oral. Conditions: in vivo.
Data set [10] has as its system Mus musculus. Description: Dose normalized AUC (0 to 23 hrs) in NOD-scid IL-2Rgamma-null mouse model engrafted with Plasmodium falciparum 3D7 infected human erythrocytes at 10 mg/kg administered via oral gavage by LC-MS/MS method. The format is ADME, organism-based. The settings on record: in vivo.
A short description of data set [11]: Tmax in NOD-scid IL-2Rgamma-null mouse model engrafted with Plasmodium falciparum 3D7 infected human erythrocytes at 25 mg/kg administered via oral gavage measured over 23 hrs post first dose by LC-MS/MS method. The format is ADME, organism-based. Conditions: in vivo.
Data set [12] can be described thus: Tmax in BALB/c mouse at 10 mg/kg administered via oral gavage as bolus dose by LC-MS/MS method. The format is ADME, organism-based. The settings on record: in vivo.
Data set [13] in a line: Cmax in BALB/c mouse at 10 mg/kg administered via oral gavage as bolus dose by LC-MS/MS method. The settings on record: in vivo. Format: ADME, organism-based. Also on record: dose 10 mg/kg, route oral.
The subject of data set [14] is Mus musculus. Put plainly: Dose normalized Cmax in NOD-scid IL-2Rgamma-null mouse model engrafted with Plasmodium falciparum 3D7 infected human erythrocytes at 50 mg/kg administered via oral gavage measured over 23 hrs post first dose by LC-MS/MS method. The format is ADME, organism-based. Conditions: in vivo.
Data set [15] has as its system Mus musculus. Description: Dose normalized AUC (0 to 23 hrs) in NOD-scid IL-2Rgamma-null mouse model engrafted with Plasmodium falciparum 3D7 infected human erythrocytes at 5 mg/kg administered via oral gavage by LC-MS/MS method. The format is ADME, organism-based. The settings on record: in vivo.
The nature of data set [16]: Cmax in Sprague-Dawley rat at 5 mg/kg, iv administered as 2 mins of infusion by LC-MS/MS method. Format: ADME, organism-based. Also on record: dose 5 mg/kg, route intravenous. The settings on record: in vivo.
A short description of data set [17]: Tmax in NOD-scid IL-2Rgamma-null mouse model engrafted with Plasmodium falciparum 3D7 infected human erythrocytes at 10 mg/kg administered via oral gavage measured over 23 hrs post first dose by LC-MS/MS method. The settings on record: in vivo. The format is ADME, organism-based.
Data set [18] can be described thus: Cmax in Sprague-Dawley rat at 20 mg/kg administered via oral gavage as bolus dose by LC-MS/MS method. The format is ADME, organism-based. Also on record: dose 20 mg/kg, route oral. The settings on record: in vivo.
Data set [19] is described as follows: Drug metabolism in iv or po dosed Sprague-Dawley rat plasma assessed as oxidation of phenyl ring by LC-MS/MS method. The format is ADME, organism-based. The settings on record: in vivo.
In data set [20] the test system is Mus musculus. Put plainly: Dose normalized Cmax in NOD-scid IL-2Rgamma-null mouse model engrafted with Plasmodium falciparum 3D7 infected human erythrocytes at 10 mg/kg administered via oral gavage measured over 23 hrs post first dose by LC-MS/MS method. The format is ADME, organism-based. Conditions: in vivo.
Data set [21] relates to Rattus norvegicus. Put plainly: Dose normalized AUC (0 to infinity) in Sprague-Dawley rat at 5 mg/kg, iv administered as 2 mins of infusion by LC-MS/MS method. Format: ADME, organism-based. Conditions: in vivo.
Data set [22] deals with Mus musculus. Description: Dose normalized AUC (0 to 23 hrs) in NOD-scid IL-2Rgamma-null mouse model engrafted with Plasmodium falciparum 3D7 infected human erythrocytes at 25 mg/kg via oral gavage by LC-MS/MS method. The format is ADME, organism-based. Conditions: in vivo.
Data set [23] can be described thus: AUC (0 to 23 hrs) in NOD-scid IL-2Rgamma-null mouse model engrafted with Plasmodium falciparum 3D7 infected human erythrocytes at 25 mg/kg administered via oral gavage by LC-MS/MS method. Format: ADME, organism-based. Also noted: time < 23 hr, dose 25 mg/kg, route oral. Conditions: in vivo.
For data set [24], the system named is Rattus norvegicus. Description: Dose normalized AUC (0 to infinity) in Sprague-Dawley rat at 20 mg/kg administered via oral gavage as bolus dose by LC-MS/MS method. Format: ADME, organism-based. The settings on record: in vivo.
Data set [25] in a line: Drug metabolism in iv or po dosed Sprague-Dawley rat plasma assessed as oxidation of pyridine ring by LC-MS/MS method. The format is ADME, organism-based. The settings on record: in vivo.
A short description of data set [26]: AUC (0 to 23 hrs) in NOD-scid IL-2Rgamma-null mouse model engrafted with Plasmodium falciparum 3D7 infected human erythrocytes at 50 mg/kg administered via oral gavage by LC-MS/MS method. Also noted: dose 50 mg/kg, time < 23 hr, route oral. The settings on record: in vivo. Format: ADME, organism-based.
Data set [27] has as its system Mus musculus. Put plainly: Dose normalized AUC (0 to infinity) in BALB/c mouse at 10 mg/kg administered via oral gavage as bolus dose by LC-MS/MS method. Format: ADME, organism-based. The settings on record: in vivo.
Data set [28] can be described thus: Tmax in NOD-scid IL-2Rgamma-null mouse model engrafted with Plasmodium falciparum 3D7 infected human erythrocytes at 50 mg/kg administered via oral gavage measured over 23 hrs post first dose by LC-MS/MS method. Format: ADME, organism-based. Conditions: in vivo.
The nature of data set [29]: Cmax in NOD-scid IL-2Rgamma-null mouse model engrafted with Plasmodium falciparum 3D7 infected human erythrocytes at 25 mg/kg administered via oral gavage measured over 23 hrs post first dose by LC-MS/MS method. Format: ADME, organism-based. Also on record: dose 25 mg/kg, route oral. Conditions: in vivo.
A short description of data set [30]: Cmax in NOD-scid IL-2Rgamma-null mouse model engrafted with Plasmodium falciparum 3D7 infected human erythrocytes at 10 mg/kg administered via oral gavage measured over 23 hrs post first dose by LC-MS/MS method. Format: ADME, organism-based. Also on record: dose 10 mg/kg, route oral. The settings on record: in vivo.
A short description of data set [31]: Volume of distribution in Sprague-Dawley rat at 5 mg/kg, iv administered as 2 mins of infusion by LC-MS/MS method. Format: ADME, organism-based. The settings on record: in vivo.
Data set [32] has as its system Mus musculus. Put plainly: Dose normalized Cmax in NOD-scid IL-2Rgamma-null mouse model engrafted with Plasmodium falciparum 3D7 infected human erythrocytes at 5 mg/kg administered via oral gavage measured over 23 hrs post first dose by LC-MS/MS method. Format: ADME, organism-based. The settings on record: in vivo.
Data set [33] in a line: Oral bioavailability in Sprague-Dawley rat at 20 mg/kg administered via gavage as bolus dose by LC-MS/MS method. The format is ADME, organism-based. Conditions: in vivo.
Data set [34] is described as follows: AUC (0 to 23 hrs) in NOD-scid IL-2Rgamma-null mouse model engrafted with Plasmodium falciparum 3D7 infected human erythrocytes at 5 mg/kg administered via oral gavage by LC-MS/MS method. Format: ADME, organism-based. Also noted: dose 5 mg/kg, time < 23 hr, route oral. Conditions: in vivo.
A short description of data set [35]: Tmax in Sprague-Dawley rat at 20 mg/kg administered via oral gavage as bolus dose by LC-MS/MS method. The format is ADME, organism-based. Conditions: in vivo.
Data set [36] is described as follows: Tmax in NOD-scid IL-2Rgamma-null mouse model engrafted with Plasmodium falciparum 3D7 infected human erythrocytes at 5 mg/kg administered via oral gavage measured over 23 hrs post first dose by LC-MS/MS method. Format: ADME, organism-based. Conditions: in vivo.
For data set [37], the system named is Mus musculus. Put plainly: Dose normalized AUC (0 to 23 hrs) in NOD-scid IL-2Rgamma-null mouse model engrafted with Plasmodium falciparum 3D7 infected human erythrocytes at 50 mg/kg administered via oral gavage by LC-MS/MS method. Format: ADME, organism-based. The settings on record: in vivo.
Data set [38] in a line: Cmax in NOD-scid IL-2Rgamma-null mouse model engrafted with Plasmodium falciparum 3D7 infected human erythrocytes at 5 mg/kg administered via oral gavage measured over 23 hrs post first dose by LC-MS/MS method. The format is ADME, organism-based. Also on record: dose 5 mg/kg, route oral. Conditions: in vivo.

The term AUC(0-t) denotes the area under the concentration-time curve up to a stated or last time point. Read a high AUC(0-t) as high exposure. For orientation: Cmax means the highest concentration seen after dosing. The term Tmax denotes the time at which the peak concentration occurs. As a reminder, the Vd is a proportionality between amount in the body and measured concentration, not a real space. The low end stands for confinement near the circulation, the high end for extensive tissue distribution. What is called bioavailability is the share of a dose that reaches the circulation, judged against a reference dose that is usually intravenous. Read a high bioavailability as good availability.

Structures are written as SMILES. In brackets after ≈: the same amount, converted by molar mass.

On to `FC(F)(F)c1ccc(Nc2cc3[nH]c(C4CCCC4)nc3cn2)nc1`, for which the Drug metabolism result in data set [1], in [3] and in data set [6] was “Metabolite_Detected” throughout. The solubility kinetic at 20 h worked out at 145 µM (≈ 50.4 µg/mL) in data set [2], 85 µM (≈ 29.5 µg/mL) in [4] and 132 µM (≈ 45.8 µg/mL) in data set [5].
On to `Fc1ccc(Nc2cc3[nH]c(-c4ccc(F)c(C(F)(F)F)c4)nc3cn2)nc1`, for which the Cmax/dose in [7] was 0.155 µg/mL/mg/kg; in data set [14], 0.097 µg/mL/mg/kg; in data set [20], 0.158 µg/mL/mg/kg; in data set [32], 0.115 µg/mL/mg/kg. Besides, the AUC(0-t) at 23 h in data set [8] turned out to be 16900 ng·h/mL; in [23] it was 32600 ng·h/mL; in data set [26], 84100 ng·h/mL; in [34], 6510 ng·h/mL. For the same compound, the Cmax is 4860 ng/mL in data set [9]; 4 µM in data set [13]; 5.4 µM in data set [16]; 4.7 µM in data set [18]; 3090 ng/mL in [29]; 1580 ng/mL in data set [30]. For the same compound, the Cmax in [38] was 573 ng/mL. Moreover, the AUC/dose turned out to be 1.686 µg·h/mL/mg/kg in data set [10]; 1.302 µg·h/mL/mg/kg in data set [15]; 1692 µM·min in data set [21]; 1.632 µg·h/mL/mg/kg in [22]; 5923 µM·min in data set [24]; 2622 µM·min in data set [27]. Besides, the AUC/dose in data set [37] was determined as 1.681 µg·h/mL/mg/kg. The Tmax was 4 h in data set [11]; 1.7 h in data set [12]; 4 h in data set [17]; 2 to 4 h in data set [28]; 12 h in [35]; 4 to 6 h in [36]. Also, the values for the Drug metabolism entry in data set [19] and in data set [25] were “Metabolite_Notdetected” and “Metabolite_Detected”, respectively. Also, the solubility kinetic at 20 h in [2] was below 5 µM; in data set [4], 50 to 100 µM (≈ 19.6 to 39.1 µg/mL); in data set [5], 13 µM (≈ 5.09 µg/mL). In [31], this compound had a Vd of 2.3 L/kg. Besides, the bioavailability in [33] amounted to 88%.
